The values below come from patent US20110312930A1, “Aryl compounds with aminoalkyl substituents and their use” (BAYER SCHERING PHARMA AKTIENGESELLSCHAFT, priority 2008, published 2011).

Usually pIC50 stands for the IC50 on a negative log10 scale, so that one unit is a factor of ten. Higher therefore signals a small IC50.

pIC50: −log10 of the molar value.

In this experiment the test system is HCT 116 cells transfected with a luciferase reporter under the control of an HIF-responsive sequence. As to the kind of experiment: HIF-luciferase assay. The settings on record: Homo sapiens; HCT 116 HIF-luciferase reporter cells, hypoxia chamber (1% O2), 24 h, luminescence. In kind it is cell-based. Here is the method:
HCT 116 cells were transfected in a stable manner with a plasmid which contained a luciferase reporter under the control of an HIF-responsive sequence. These cells were sown in microtitre plates [20 000 cells/cavity in RPMI 1640 medium with 10% foetal calf serum (FCS) and 100 μg/ml of hygromycin]. Incubation was carried out overnight under standard conditions (5% CO2, 21% O2, 37° C., moistened). The following morning the cells were incubated with various concentrations of the test substances (0-10 μmol/l) in a hypoxia chamber (1% O2). After 24 h, Bright Glo reagent (Promega, Wisconsin, USA) was added in accordance with the manufacturer's instructions, and after 5 min the luminescence was measured. Cells which were incubated under normoxia served as background controls.
(In general: Reporter assays use an easily measured gene product as a stand-in for the process of interest.)
In turn, `Cc1cc(-c2nc(-c3ccc(OC(F)(F)F)cc3)no2)nn1Cc1ccc(NCCN2CCC(F)(F)CC2)nc1` [Example 103, N-[2-(4,4-Difluoropiperidin-1-yl)ethyl]-5-[(5-methyl-3-{3-[4-(trifluoromethoxy)phenyl]-1,2,4-oxa-diazol-5-yl}-1H-pyrazol-1-yl)methyl]pyridine-2-amine] had a pIC50 of 8.52.
`Cc1cc(-c2nc(-c3ccc(OC(F)(F)F)cc3)no2)nn1Cc1cccc(OCCN2CCCC2)c1` [Example 57, 5-(5-Methyl-1-{3-[2-(pyrrolidin-1-yl)ethoxy]benzyl}-1H-pyrazol-3-yl)-3-[4-(trifluoromethoxy)-phenyl]-1,2,4-oxadiazole] showed a pIC50 of 8.00.
As to `Cc1cc(-c2nc(-c3ccc(C(C)(C)C(F)(F)F)cc3)no2)nn1Cc1ccc(NCCN2CCCC2)nc1` [Example 14, 5-[(5-Methyl-3-{3-[4-(1,1,1-trifluoro-2-methylpropan-2-yl)phenyl]-1,2,4-oxadiazol-5-yl}-1H-pyrazol-1-yl)methyl]-N-[2-(pyrrolidin-1-yl)ethyl]pyridine-2-amine], the pIC50 was 8.15.
Turning to `Cc1cc(-c2nc(-c3ccc(OC(F)(F)F)cc3)no2)nn1Cc1cccc(OCCN(C)C)c1` [Example 124, N,N-Dimethyl-2-{3-[(5-methyl-3-{3-[4-(trifluoromethoxy)phenyl]-1,2,4-oxadiazol-5-yl}-1H-pyrazol-1-yl)methyl]phenoxy}ethanamine], the pIC50 is 8.30.
With `Cc1cc(-c2nc(-c3ccc(OC(F)(F)F)cc3)no2)cn1Cc1ccc(NCCN2CCC(O)CC2)nc1` [Example 16], the negative logarithm of the IC50 (pIC50) is 8.10.
As to `Cc1cc(-c2nc(-c3ccc(C(C)(C)C)cc3)no2)cn1Cc1ccc(NCCN2CCCC2)nc1` [Example 71], the pIC50 was 8.22.
`Cc1cc(-c2nc(-c3ccc(OC(F)(F)F)cc3)no2)nn1Cc1ccc(NCCN2CCOCC2)nc1` [Example 24] gave a pIC50 of 8.00. Compared with the last compound, the pIC50 is 0.22 log units lower.
Compound `Cc1cc(-c2nc(-c3ccc(OC(F)(F)F)cc3)no2)nn1Cc1ccc(NCCN2CCOCC2)cc1` [Example 60, 4-[(5-Methyl-3-{3-[4-(trifluoromethoxy)phenyl]-1,2,4-oxadiazol-5-yl}-1H-pyrazol-1-yl)methyl]-N-[2-(morpholin-4-yl)ethyl]aniline] showed a pIC50 of 8.05.
`Cc1cc(-c2nc(-c3ccc(OC(F)(F)F)cc3)no2)nn1Cc1cccc(C(=O)N(C)CCN(C)C)c1` [Example 48, N-[2-(Dimethylamino)ethyl]-N-methyl-3-[(5-methyl-3-{3-[4-(trifluoromethoxy)phenyl]-1,2,4-oxa-diazol-5-yl}-1H-pyrazol-1-yl)methyl]benzenecarboxamide]: the pIC50 is 8.00.
In the case of `Cc1cc(-c2nc(-c3ccc(OC(F)(F)F)cc3)no2)nn1Cc1ccc(NCCN2CCCC2=O)nc1` [Example 73] it was 8.10; in that of `Cc1cc(-c2nc(-c3ccc(OC(F)(F)F)cc3)no2)nn1Cc1cccc(OCCN2CCOCC2)c1` [Example 123, 4-(2-{3-[(5-Methyl-3-{3-[4-(trifluoromethoxy)phenyl]-1,2,4-oxadiazol-5-yl}-1H-pyrazol-1-yl)-methyl]phenoxy}ethyl)morpholine], 9.00; in that of `Cc1cc(-c2nc(-c3ccc(S(=O)(=O)C(F)(F)F)cc3)no2)nn1Cc1ccc(NCCN2CCOCC2)nc1` [Example 22], 8.00.
`Cc1cc(-c2nc(-c3ccc(OC(F)(F)F)cc3)no2)nn1Cc1ccc(NCCN2CCS(=O)(=O)CC2)nc1` [Example 102, N-[2-(1,1-Dioxidothiomorpholin-4-yl)ethyl]-5-[(5-methyl-3-{3-[4-(trifluoromethoxy)phenyl]-1,2,4-oxadiazol-5-yl}-1H-pyrazol-1-yl)methyl]pyridine-2-amine] showed a pIC50 of 8.60.
With `Cc1cc(-c2nc(-c3ccc(OC(F)(F)F)cc3)no2)nn1Cc1ccc(NCCCN2CCCC2=O)nc1` [Example 74], the pIC50 is 8.10.
In turn, `Cc1cc(-c2nc(-c3ccc(OC(F)(F)F)cc3)no2)nn1Cc1ccc(SCCN2CCCC2)cc1` [Example 67, 5-[5-Methyl-1-(4-{[2-(pyrrolidin-1-yl)ethyl]sulphanyl}benzyl)-1H-pyrazol-3-yl]-3-[4-(trifluoromethoxy)phenyl]-1,2,4-oxadiazole] had a pIC50 of 8.00. The pIC50 values of the last two compounds are within 0.2 log units of each other.
